{"source": "patent US5567704A", "about": "“R-enatiomerically pure hydroxylated xanthine compounds to treat baldness” (priority 1995, dated 1996)", "key": {"[1]": {"test_system": "U937 cells", "test": "adhesion of IL-1α activated U937 cells to HUVEC", "format": "cell-based, human", "settings": "250 μM pre-treatment of U937 cells, FIG. 22", "experimental": "(§1) Murine peritoneal exudate cell macrophages (PEC) were isolated by perfusion of mouse peritoneum and plated into 96-well trays at 5×10^5 cells per well. Cells were stimulated with 5 μg/ml Salmonella abortus equi -derived endotoxin (LPS; Sigma Chemical Co., L-1887) or […] IL-1α (Genzyme; Cambridge, Mass.) with or without the addition of CT1501R added to the cultures one hour prior to addition of the stimulus. At various times thereafter, supernatants were removed and levels of either TNF-α or IL-1α were assayed using commercial 96-well microtiter immunoassay kits (Genzyme; TNF; Endogen, Boston, Mass.; IL-1α) according to manufacturer's specifications. For the adhesion studies, early passage human umbilical vein endothelial cells (HUVEC) were obtained. from commercial suppliers (Clonetics, San Diego, Calif. or Cell Systems, Seattle, Wash.) and cultured in defined, Hepes buffered, serum free medium (Cell Systems, cat 301-180) supplemented with acidic FGF (Cell Systems cat 401-111). 4000 cells were plated into each well of a 96-well microtiter plate and allowed to incubate for 72 hrs at 37° C. […] After addition of […] Hanks Balanced Salt Solution (HBSS), the microtiter plate was then analyzed on a Millipore Cytofluor fluorescent plate reader (excitation 488 nm; emission 525 nm). […]"}, "[2]": {"test_system": "IL-1α release in peritoneal macrophages", "test": "IL-1α release in LPS activated PEC (ELISA)", "format": "cell-based, murine", "settings": "Mus musculus, Peritoneal macrophage, at 24 hours after LPS, FIG. 19, read-out: maximum inhibition of IL-1α release", "experimental": "as §1"}, "[3]": {"test_system": "Balb/C mice", "test": "5-fluorouracil (5-FU) induced bone marrow suppression in mice", "format": "in vivo, mouse", "experimental": "This example illustrates the effect of CT1501R on 5-fluorouracil (5-FU) induced bone marrow suppression in mice. We determined if CT1501R influenced the time required for hematopoietic reconstitution following cytotoxic chemotherapy in a murine model. Female Balb/C mice (VAF, Charles River Laboratories, 6-8 wks of age approximately 17.3-18.5 g) were treated with 5-FU at adose of 200 mg/kg intraperitoneally (i.p.) in experiment 1 or […] in experiment 2. CT1501R or vehicle control was given at a dose of 100 μg/kg i.p. bid starting 1 day prior to 5-FU and was continued until the last mice were sacrificed on day 13 in experiment 1 and day 15 in experiment 2. Controls included mice treated with CT1501R or vehicle without 5-FU. Mice (4 per group) were sacrificed starting 2 days after 5-FU by cardiac puncture under halothane anesthesia followed by cervical dislocation and had total white blood cell counts and differential counts performed. Platelet counts were performed using phase-contrast microscopy in duplicate. Femurs were harvested and the number of granulocyte-macrophage colony forming cells (CFU-GM) per femur were measured using a standard assay (Terry Fox Laboratories, Vancouver, British Columbia) using pokeweed mitogen spleen conditioned medium as the growth factor. Each femur was plated separately in triplicate and the mean and means for each experimental point was calculated. Standard deviations used for statistical analysis were deviations of the mean number of colonies measured for each femur.\nExperiment 2 was similar to experiment 1 with the following exceptions: (1) the dose of 5-FU was decreased to 185 mg/kg; (2) daily blood draws were performed between days 10 and 15; and (3) platelet counts were performed."}, "[4]": {"test_system": "TNF-α release from IL-1α activated PEC", "test": "TNF-α release from IL-1α-activated peritoneal macrophages (ELISA)", "format": "cell-based, murine", "settings": "Mus musculus, Peritoneal macrophage, 50 ng/ml IL-1α, 24, 48 or 72 hrs, FIG. 20, read-out: inhibition of induced levels of TNF-α", "experimental": "as §1"}, "[5]": {"test_system": "IL-6", "test": "mouse plasma IL-6 ELISA after endotoxin", "format": "in vivo", "settings": "for Plasma IL-6: LPS + CT-1501R", "experimental": "For ELISA measurements of cytokine levels in plasma, blood was collected by retro-orbital or cardiac puncture of anesthetized mice, immediately centrifuged and the EDTA plasma stored at -70° C. Particulate free plasma was thawed on ice and cytokine levels determined utilizing commercial ELISA assays with normal mouse plasma used to generate standard curves. Murine tumor necrosis factor-α and interleukin-1αkits were purchased from Genzyme (Cambridge, Mass.) and Endogen (Boston, Mass.), respectively. Each data point was an average of two ELISA measurements made from EDTA […] pooled from three mice. The data summarized in Table 3 were compiled from two independent experiments; data from Table 4 and 5 were from single experiments of three mice per data point.\nIn particular, peak levels observed at 6, 12 and 18 hours post endotoxin were decreased 1.2, 4.3 and 3.2-fold, respectively. Finally, IL-6 measurements were made in a similar manner (Table 6, FIG. 8)."}}, "data": [{"smiles": "C[C@@H](O)CCCCn1c(=O)c2c(ncn2C)n(C)c1=O", "note": "[CT1501R, (R)-1-(5-hydroxyhexyl)-3,7-dimethylxanthine]", "values": [{"measurement": "IL-1α mediated increase in adhesion of U937 cells to HUVEC", "setting": "[1]", "result": "effectively blocked the IL-1α mediated increase in adhesion to HUVEC to near background levels"}, {"measurement": "inhibition at 250 µM", "setting": "[2]", "result": "~50", "unit": "%"}, {"measurement": "mouse survival, Kaplan-Meier plot", "setting": "[3]; 5-FU treated mice, FIG. 14", "result": "improved survival"}, {"measurement": "rise in ANC and CFU-GM/femur associated with vehicle injections", "setting": "[3]; animals that did not receive 5-FU", "result": "prevented both the rise in ANC and rise in CFU-GM/femur"}, {"measurement": "increase in the number of CFU-GM/femur compared to control animals", "setting": "[3]; during hematopoietic recovery", "result": "approximately two-fold"}, {"measurement": "CFU-GM/femur", "setting": "[3]; experiment 1, day 13, vs vehicle control and day 0 animals", "result": "significantly more CFU-GM/femur on day 13"}, {"measurement": "mean ±SD ANC", "setting": "[3]; experiment 1, day 13 after 5-FU", "result": "440±17 /mm^3"}, {"measurement": "WBC of 5-FU treated mice", "setting": "[3]; experiment 1, days 6 and 10", "result": "significantly lower in vehicle treated controls than in CT1501R treated mice"}, {"measurement": "number of cells per femur", "setting": "[3]; experiment 2", "result": "increased during hematopoietic recovery compared to control animals"}, {"measurement": "WBC", "setting": "[3]; experiment 2, FIG. 10", "result": "significantly higher WBC's"}, {"measurement": "platelet count nadir and rate of recovery", "setting": "[3]; experiment 2, FIG. 11", "result": "increased compared to vehicle control animals"}, {"measurement": "neutrophil recovery", "setting": "[3]; experiment 2, FIG. 12", "result": "accelerated"}, {"measurement": "WBC and ANC", "setting": "[3]; mice without 5-FU, i.p. bid", "result": "remained within 1 SD of control values"}, {"measurement": "adverse effects", "setting": "[3]; mice without 5-FU, i.p. bid", "result": "no apparent adverse effects"}, {"measurement": "inhibition at 250 µM", "setting": "[4]", "result": "50 to 70", "unit": "%"}, {"measurement": "fold decrease of plasma IL-6", "setting": "[5]; 3 hours post endotoxin", "result": 1.7, "unit": "fold"}, {"measurement": "fold decrease of plasma IL-6", "setting": "[5]; 6 hours post endotoxin", "result": 2.0, "unit": "fold"}, {"measurement": "fold decrease of plasma IL-6", "setting": "[5]; 12 hours post endotoxin", "result": 4.1, "unit": "fold"}, {"measurement": "Plasma IL-6", "setting": "[5]; 0 hours post LPS", "result": 0, "unit": "ng/mL"}, {"measurement": "Plasma IL-6", "setting": "[5]; 0.17 hours post LPS", "result": 0.14, "unit": "ng/mL"}, {"measurement": "Plasma IL-6", "setting": "[5]; 0.5 hours post LPS", "result": 1, "unit": "ng/mL"}, {"measurement": "Plasma IL-6", "setting": "[5]; 1 hour post LPS", "result": 31.8, "unit": "ng/mL"}, {"measurement": "Plasma IL-6", "setting": "[5]; 3 hours post LPS", "result": 183, "unit": "ng/mL"}, {"measurement": "Plasma IL-6", "setting": "[5]; 6 hours post LPS", "result": 121, "unit": "ng/mL"}, {"measurement": "Plasma IL-6", "setting": "[5]; 12 hours post LPS", "result": 29.6, "unit": "ng/mL"}, {"measurement": "Plasma IL-6", "setting": "[5]; 18 hours post LPS", "result": 19.8, "unit": "ng/mL"}, {"measurement": "Plasma IL-6", "setting": "[5]; 24 hours post LPS", "result": 25.6, "unit": "ng/mL"}, {"measurement": "Plasma IL-6", "setting": "[5]; 36 hours post LPS", "result": 1.64, "unit": "ng/mL"}, {"measurement": "Plasma IL-6", "setting": "[5]; 48 hours post LPS", "result": 0.4, "unit": "ng/mL"}]}]}
